PubChem BioAssay AID1259407 (Chemical Carcinogenesis Research Information System (CCRIS), 2018)
Activity calls are given as the source filed them. The rule behind the calls is not given here.

Test system: CCRIS mutagenicity, Ames/micronucleus/aberration tests
Experiment: CCRIS mutagenicity studies

With `O=P1(N(CCCl)CCCl)NCCCO1` (stereo not drawn) the mutagenic call (End Point: IN VITRO CHROMOSOMAL ABERRATIONS, Test System: CHL/IU CELLS, Metabolic Activation: RAT, LIVER, S-9, PHENOBARBITAL AND 5,6-BENZOFLAVONE) was “active; positive (structural changes)”, the mutagenic call (End Point: IN VITRO CHROMOSOMAL ABERRATIONS, Test System: HUMAN LYMPHOCYTES, Metabolic Activation: RAT LIVER S-9, AROCLOR 1254) was “active; positive” and the mutagenic call (End Point: IN VITRO MICRONUCLEUS, Test System: BOVINE LYMPHOCYTES, Metabolic Activation: S-9 MIX, AROCLOR 1254) was “active; positive”. The mutagenic call (End Point: IN VITRO MICRONUCLEUS, Test System: CHL/IU CELLS, Metabolic Activation: RAT, LIVER, S-9, PHENOBARBITAL AND 5,6-BENZOFLAVONE) was “active; positive”, the mutagenic call (End Point: IN VITRO MICRONUCLEUS, Test System: CHO CELLS, Metabolic Activation: RAT, LIVER, S-9, AROCLOR 1254) was “active; positive” and the mutagenic call (End Point: IN VIVO MICRONUCLEUS, Test System: BLOOD ERYTHROCYTES, Species: MOUSE, Strain/Sex: CD-1/MALE, Route: ORAL) was “active; positive”. For the same molecule, the mutagenic call (End Point: IN VIVO MICRONUCLEUS, Test System: BONE MARROW CELLS, Species: MOUSE, Strain/Sex: CD-1/MALE, Route: GAVAGE) was “active; positive”, the mutagenic call (End Point: IN VIVO MICRONUCLEUS, Test System: BONE MARROW ERYTHROCYTES, Species: HAMSTER, Strain/Sex: SYRIAN/MALE, Route: INTRAPERITONEAL) was “active; positive” and the mutagenic call (End Point: IN VIVO MICRONUCLEUS, Test System: BONE MARROW POLYCHROMATIC ERYTHROCYTES, Species: MOUSE, Strain/Sex: SWISS/MALE, Route: IP) was “active; positive”. The mutagenic call (End Point: In vivo chromosomal aberrations, Test System: Bone marrow cells, Species: Rat, Strain/Sex: Wistar/Male, Route: Intraperitoneal injection) was “active; positive (structural changes: gaps, breaks). effect by 100 or 200 mg/kg alpha-li”, the mutagenic call (End Point: In vivo micronucleus, Test System: Bone marrow erythrocytes, Species: Mouse, Strain/Sex: NMRI/Male, Route: Intraperitoneal) was “active; positive (hawthorn extract significantly reduced micronucleated polychromatic er” and the mutagenic call (End Point: In vivo micronucleus, Test System: Bone marrow erythrocytes, Species: Mouse, Strain/Sex: Swiss/Male, Route: Intraperitoneal) was “active; positive (pue or 4-nc showed dose-dependent protective effect against cyclophosp”. For the same molecule, the mutagenic call (End Point: In vivo micronucleus, Test System: Micronucleated hepatocytes, Species: Rat, Strain/Sex: F344/Male, Route: Oral) was “inactive; negative”, the mutagenic call (End Point: In vivo micronucleus, Test System: Peripheral blood and bone marrow erythrocytes, Species: Dog, Strain/Sex: Beagle/Male and female, Route: Intravenous) was “active; positive. evaluations by flow cytometry and manual counting; multi-laboratory st” and the mutagenic call (End Point: MICRONUCLEUS, Test System: BONE MARROW, Species: RAT, Strain/Sex: WISTAR, Route: INTRAPERITONEAL) was “active; positive”. The mutagenic call (Test System: AMES SALMONELLA TYPHIMURIUM, Strain/Indicator: TA97, Metabolic Activation: NONE, Method: STANDARD PLATE) was “inactive; negative”, the mutagenic call (Test System: AMES SALMONELLA TYPHIMURIUM, Strain/Indicator: TA97, Metabolic Activation: RAT, LIVER, S-9, PHENOBARBITAL AND ALPHA-NAPHTHOFLAVONE, Method: STANDARD PLATE) was “inactive; negative” and the mutagenic call (Test System: AMES SALMONELLA TYPHIMURIUM, Strain/Indicator: TA98, Metabolic Activation: NONE, Method: PREINCUBATION) was “inactive; negative”. For the same molecule, the mutagenic call (Test System: AMES SALMONELLA TYPHIMURIUM, Strain/Indicator: TA98, Metabolic Activation: NONE, Method: SPIRAL ASSAY) was “inactive; negative”, the mutagenic call (Test System: AMES SALMONELLA TYPHIMURIUM, Strain/Indicator: TA98, Metabolic Activation: NONE, Method: STANDARD PLATE) was “inactive; negative” and the mutagenic call (Test System: AMES SALMONELLA TYPHIMURIUM, Strain/Indicator: TA98, Metabolic Activation: RAT, LIVER, S-9, AROCLOR 1254, Method: SPIRAL ASSAY) was “inactive; negative”. For the same molecule, the mutagenic call (Test System: AMES SALMONELLA TYPHIMURIUM, Strain/Indicator: TA98, Metabolic Activation: RAT, LIVER, S-9, PHENOBARBITAL AND ALPHA-NAPHTHOFLAVONE, Method: STANDARD PLATE) was “inactive; negative”, the mutagenic call (Test System: AMES SALMONELLA TYPHIMURIUM, Strain/Indicator: TA98, Metabolic Activation: S-9, Method: PREINCUBATION) was “inactive; negative” and the mutagenic call (Test System: AMES SALMONELLA TYPHIMURIUM, Strain/Indicator: TA98, Metabolic Activation: S-9, Method: STANDARD PLATE) was “inactive; negative”. The mutagenic call (Test System: AMES SALMONELLA TYPHIMURIUM, Strain/Indicator: TA100, Metabolic Activation: MOUSE, LIVER, S-9, PHENOBARBITAL AND BETA-NAPHTHOFLAVONE, Method: STANDARD PLATE) was “active; positive”, the mutagenic call (Test System: AMES SALMONELLA TYPHIMURIUM, Strain/Indicator: TA100, Metabolic Activation: MOUSE, LIVER, S-9, PHENOBARBITAL, BETA-NAPHTHOFLAVONE, ISOSAFROLE, ETHANOL, PREGNENOLONE AND 16ALPHA-CARBONITRILE, Method: STANDARD PLATE) was “active; positive” and the mutagenic call (Test System: AMES SALMONELLA TYPHIMURIUM, Strain/Indicator: TA100, Metabolic Activation: NONE, Method: PREINCUBATION) was “inactive; negative”. The mutagenic call (Test System: AMES SALMONELLA TYPHIMURIUM, Strain/Indicator: TA100, Metabolic Activation: NONE, Method: SPIRAL ASSAY) was “active; positive”, the mutagenic call (Test System: AMES SALMONELLA TYPHIMURIUM, Strain/Indicator: TA100, Metabolic Activation: RAT, LIVER, PARENCHYMAL CELLS (CRYOPRESERVED), Method: PREINCUBATION) was “inactive; negative” and the mutagenic call (Test System: AMES SALMONELLA TYPHIMURIUM, Strain/Indicator: TA100, Metabolic Activation: RAT, LIVER, PARENCHYMAL CELLS (FRESHLY ISOLATED OR STORED FOR 1 D), Method: PREINCUBATION) was “active; positive”. The mutagenic call (Test System: AMES SALMONELLA TYPHIMURIUM, Strain/Indicator: TA100, Metabolic Activation: RAT, LIVER, S-9, AROCLOR 1254, Method: SPIRAL ASSAY) was “active; positive”, the mutagenic call (Test System: AMES SALMONELLA TYPHIMURIUM, Strain/Indicator: TA100, Metabolic Activation: RAT, LIVER, S-9, AROCLOR 1254, Method: STANDARD PLATE) was “active; positive” and the mutagenic call (Test System: AMES SALMONELLA TYPHIMURIUM, Strain/Indicator: TA100, Metabolic Activation: RAT, LIVER, S-9, PHENOBARBITAL AND ALPHA-NAPHTHOFLAVONE, Method: STANDARD PLATE) was “active; positive”.
